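Values below derive from 48-hour exposures of cells grown in 96-well plates, with endpoints linearly interpolated between the two concentrations bracketing the appropriate inhibition level. Here, GI50 denotes the concentration required for 50% inhibition of growth.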 Calls of active or inactive are those of the source. Cut-off read from the data, not from the text of the source: active = GI50 up to about 1.1 µM and inactive = higher.

Some test systems named below: KM12; SF-539; HOP-92; NCI-H226; LOX IMVI; OVCAR-4; CCRF-CEM; OVCAR-8; NCI-H23; NCI-H460; MOLT-4; UO-31; NCI-H522; A549; COLO 205; EKVX; 786-0.
Test in all cases: inhibition of tumour cell growth, NCI panel, 48 h

In the case of `CNC(=O)C(C)C1CCC2(C)C=CC(=O)C(C)=C2C1O` (stereo not drawn), the GI50 with KM12, in the experiment on SF-539, in the experiment with HOP-92, with NCI-H226, in the experiment on LOX IMVI and in the experiment on OVCAR-4 was > 100 µM (inactive) throughout. For the same molecule, the GI50 in the experiment with CCRF-CEM was > 100 µM (inactive); with OVCAR-8, > 49.4 µM (inactive); in the experiment on NCI-H23, > 100 µM (inactive); with NCI-H460 it was > 100 µM (inactive); in the experiment with MOLT-4, > 100 µM (inactive); in the experiment with UO-31 it was > 43.3 µM (inactive). The GI50 with NCI-H522 was > 100 µM (inactive); in the experiment with A549, > 48.8 µM (inactive); in the experiment with COLO 205 it was > 47.2 µM (inactive); in the experiment on EKVX, > 100 µM (inactive).

Take `CN(C)CCNC(=O)c1cccc2c1nc(-c1cccnc1)c1ccccc12`: the GI50 in the experiment on KM12 was 6.78 µM (inactive); in the experiment on SF-539 it was 2.65 µM (inactive); with HOP-92, 5.31 µM (inactive); in the experiment with NCI-H226, 2.3 µM (inactive); with 786-0, 5.04 µM (inactive); in the experiment with LOX IMVI, 2.15 µM (inactive). In addition, the GI50 in the experiment with OVCAR-4 is 4.91 µM (inactive); with CCRF-CEM, 4.29 µM (inactive); in the experiment with OVCAR-8, 4.81 µM (inactive); in the experiment with NCI-H23 it was 4.24 µM (inactive); in the experiment on NCI-H460 it was 0.303 µM (active); in the experiment with MOLT-4 it was 0.311 µM (active). Also, the GI50 in the experiment with UO-31 is 2.69 µM (inactive); with A549, 1.21 µM (inactive); with COLO 205 it was 4.47 µM (inactive); in the experiment with EKVX, 4.24 µM (inactive).

With `O=C(CC1(O)C(=O)Nc2c(Cl)cc(Cl)cc21)c1ccco1` (stereo not drawn), the GI50 in the experiment with KM12 is 32.7 µM (inactive); with HOP-92, 36.6 µM (inactive); in the experiment with NCI-H226, 23.3 µM (inactive); in the experiment on 786-0 it was 23.7 µM (inactive); with LOX IMVI, 33.1 µM (inactive); in the experiment on OVCAR-4, 15.7 µM (inactive). Moreover, the GI50 in the experiment with CCRF-CEM was 24.3 µM (inactive); in the experiment with OVCAR-8, 37.4 µM (inactive); in the experiment with NCI-H23 it was 56.1 µM (inactive); in the experiment with NCI-H460 it was 65.6 µM (inactive); in the experiment with MOLT-4, 15.4 µM (inactive); in the experiment on UO-31, 98.2 µM (inactive). Moreover, the GI50 is 62.5 µM (inactive) in the experiment on NCI-H522, > 100 µM (inactive) in the experiment with A549, > 100 µM (inactive) in the experiment with COLO 205 and 59.2 µM (inactive) with EKVX.

Turning to `c1ccc2c(c1)nc1n2CSC1`, the GI50 with SF-539 is > 100 µM (inactive); in the experiment on HOP-92 it was 24 µM (inactive); in the experiment with NCI-H226, > 100 µM (inactive); with LOX IMVI, > 100 µM (inactive); with CCRF-CEM it was > 100 µM (inactive); with OVCAR-8, > 100 µM (inactive). Further, the GI50 in the experiment on NCI-H23, in the experiment on NCI-H460, with MOLT-4, with UO-31, in the experiment on NCI-H522 and with COLO 205 was > 100 µM (inactive) throughout. In addition, the GI50 in the experiment on EKVX was > 100 µM (inactive).

Regarding `COC(=O)c1s/c(=N\C(=S)N(C)C)n(-c2ccccc2)c1C(=O)OC`, the GI50 in the experiment with KM12, in the experiment on SF-539, with HOP-92, with NCI-H226, with 786-0 and with LOX IMVI was > 100 µM (inactive) each time. For the same molecule, the GI50 is 94 µM (inactive) in the experiment on OVCAR-4; > 100 µM (inactive) with OVCAR-8; > 100 µM (inactive) in the experiment with NCI-H23; > 100 µM (inactive) in the experiment on NCI-H460; 66.8 µM (inactive) in the experiment on MOLT-4; > 100 µM (inactive) in the experiment with UO-31. The GI50 in the experiment on NCI-H522, in the experiment on A549, in the experiment with COLO 205 and with EKVX was > 100 µM (inactive) throughout.

Regarding `COc1cc(/C=C/C(=O)O)ccc1C(=O)OCc1ccccc1`, the GI50 in the experiment on KM12, in the experiment with SF-539, in the experiment on HOP-92, in the experiment on NCI-H226, with LOX IMVI and in the experiment on OVCAR-4 was > 100 µM (inactive) each time. Also, the GI50 in the experiment on CCRF-CEM, in the experiment on OVCAR-8, in the experiment with NCI-H23, in the experiment with NCI-H460, in the experiment with MOLT-4 and in the experiment on UO-31 was > 100 µM (inactive) each time. Besides, the GI50 in the experiment with NCI-H522, in the experiment with A549, with COLO 205 and in the experiment with EKVX was > 100 µM (inactive) in each case.

Regarding `O=C(NNc1ccc([N+](=O)[O-])cc1)C1OC(CO)C(O)C1O` (stereo not drawn), the GI50 in the experiment with KM12 is 81.8 µM (inactive); in the experiment with SF-539 it was > 100 µM (inactive); with HOP-92, > 100 µM (inactive); in the experiment with NCI-H226, > 100 µM (inactive); with 786-0, 26.4 µM (inactive); in the experiment on LOX IMVI it was > 100 µM (inactive). Further, the GI50 was > 100 µM (inactive) in the experiment on OVCAR-4; 43.7 µM (inactive) with CCRF-CEM; > 100 µM (inactive) with OVCAR-8; > 100 µM (inactive) with NCI-H23; > 100 µM (inactive) with NCI-H460; > 100 µM (inactive) with MOLT-4. Moreover, the GI50 in the experiment on UO-31, with A549, in the experiment on COLO 205 and in the experiment on EKVX was > 100 µM (inactive) each time.

For the molecule `COC(=O)C#CCC1CCCC1C1SCCS1` (stereo not drawn), the GI50 was 36.7 µM (inactive) with KM12; 99.1 µM (inactive) in the experiment on SF-539; > 100 µM (inactive) with HOP-92; > 100 µM (inactive) in the experiment with NCI-H226; > 100 µM (inactive) with 786-0; 50.2 µM (inactive) with LOX IMVI. Further, the GI50 was 71.4 µM (inactive) in the experiment with OVCAR-4; 29.2 µM (inactive) in the experiment on CCRF-CEM; 61.1 µM (inactive) in the experiment on OVCAR-8; > 100 µM (inactive) in the experiment with NCI-H23; 21.2 µM (inactive) in the experiment with MOLT-4; > 100 µM (inactive) with UO-31. The GI50 in the experiment with NCI-H522 was 28 µM (inactive); in the experiment with A549, > 100 µM (inactive); in the experiment on COLO 205, > 100 µM (inactive); in the experiment on EKVX, > 100 µM (inactive).

Turning to `c1ccc(N/N=C2\NN=C(c3ccccc3)CS2)cc1`, the GI50 in the experiment with KM12 is 13.2 µM (inactive); with SF-539 it was 18.1 µM (inactive); in the experiment on HOP-92, 11.3 µM (inactive); in the experiment with NCI-H226 it was 16 µM (inactive); in the experiment on 786-0, 15.7 µM (inactive); in the experiment on LOX IMVI it was 4.39 µM (inactive). For the same molecule, the GI50 with CCRF-CEM is 3.17 µM (inactive); in the experiment on OVCAR-8, 5.27 µM (inactive); in the experiment with NCI-H23, 17.9 µM (inactive); in the experiment with NCI-H460 it was 14 µM (inactive); with MOLT-4, 3.66 µM (inactive); in the experiment with UO-31 it was 12.9 µM (inactive). For the same molecule, the results for the GI50 in the experiment with NCI-H522, in the experiment on A549 and in the experiment on EKVX were 3.49 µM (inactive), 4.78 µM (inactive) and 12.4 µM (inactive), respectively.

Regarding `Nc1cc(O)c2cc(/N=N/c3ccc(/N=N/c4ccc(/N=N/c5ccc6cc(S(=O)(=O)O)cc(S(=O)(=O)O)c6c5)c5ccccc45)c4cc(S(=O)(=O)O)ccc34)c(S(=O)(=O)O)cc2c1`, the GI50 with KM12 is > 100 µM (inactive); with SF-539, > 100 µM (inactive); in the experiment on HOP-92, 32.2 µM (inactive); in the experiment with NCI-H226 it was 36.7 µM (inactive); in the experiment with LOX IMVI, > 100 µM (inactive); with OVCAR-4, > 100 µM (inactive). Moreover, the GI50 in the experiment on CCRF-CEM was 61.5 µM (inactive); in the experiment with OVCAR-8, > 100 µM (inactive); in the experiment on NCI-H23, > 100 µM (inactive); with NCI-H460, > 100 µM (inactive); in the experiment with MOLT-4, 64.7 µM (inactive); in the experiment with UO-31, 85.9 µM (inactive). The GI50 in the experiment with NCI-H522 was 98.6 µM (inactive); in the experiment with A549, 96.8 µM (inactive); in the experiment with COLO 205, > 100 µM (inactive); in the experiment with EKVX, > 100 µM (inactive).

Consider `COc1cc(C2c3cc4c(cc3[C@@H](Oc3ccc(F)cc3)C3COC(=O)[C@H]23)OCO4)cc(OC)c1O` (stereo partly drawn), for which the GI50 in the experiment on KM12 is 4.03 µM (inactive); in the experiment with SF-539 it was 0.209 µM (active); with HOP-92 it was 1.2 µM (inactive); in the experiment on NCI-H226 it was 0.417 µM (active); in the experiment with LOX IMVI, 0.578 µM (active); in the experiment with OVCAR-4, 6.79 µM (inactive). Besides, the GI50 is 0.368 µM (active) with CCRF-CEM; 0.447 µM (active) in the experiment with OVCAR-8; 0.335 µM (active) in the experiment on NCI-H23; 0.343 µM (active) with NCI-H460; 0.359 µM (active) with MOLT-4; > 67.5 µM (inactive) in the experiment with UO-31. The GI50 was 0.217 µM (active) in the experiment on NCI-H522, 0.405 µM (active) with A549, 1.75 µM (inactive) in the experiment on COLO 205 and > 43.8 µM (inactive) in the experiment with EKVX.

Turning to `COc1cc2c(cc1OC)-c1c3c(cc4c1[C@@H](C2)N(C)CC4)OCO3`, the GI50 is 7.4 µM (inactive) in the experiment with KM12; 5.94 µM (inactive) in the experiment with SF-539; 6.78 µM (inactive) in the experiment with HOP-92; 7.06 µM (inactive) in the experiment with NCI-H226; 3.78 µM (inactive) with LOX IMVI; 8.26 µM (inactive) in the experiment with OVCAR-4. The GI50 with CCRF-CEM was 3.96 µM (inactive); with OVCAR-8 it was 4.59 µM (inactive); in the experiment on NCI-H23, 10.2 µM (inactive); in the experiment on NCI-H460 it was 2.53 µM (inactive); in the experiment with MOLT-4, 3.85 µM (inactive); in the experiment with UO-31, 11.8 µM (inactive). Further, the GI50 was 6.7 µM (inactive) in the experiment with NCI-H522, 3.34 µM (inactive) with A549, 4.23 µM (inactive) in the experiment with COLO 205 and 11.4 µM (inactive) in the experiment on EKVX.

Source of the values: ChEMBL document CHEMBL1201862, “PubChem BioAssay data set” (2004).
